Measurements reported in article PMC7591920, “A protein tertiary structure mimetic modulator of the Hippo signalling pathway” (Nature Communications, 2020).

Columns and labels:
RKO cells [1] = test: Total drug content in RKO cells by UPLC-MS; conditions: 25 µM compound; for Total drug content, Measured Concentration: RIPA total lysis, diluted lysate
Experimental: (§1) Peptides were incubated in RKO cells (ATCC, #CRL-2577) as follows: Experiment 1: RKO cells were incubated in 25 µM compound for 90 min and 24 h. Experiment 2: RKO cells were incubated in 25 µM for 30 min or 72 h. Following peptide incubation, the cells were washed twice with PBS, trypsinized and pelleted. The pellets were lysed in RIPA buffer (Perkin Elmer) for total lysis, or CelLytic NuCLEAR Extraction Kit (SIGMA) for subcellular fractionation. Total protein quantification BCA (Pierce) was performed prior to MS analysis to normalize sample data. Total and fractionated cell lysates were analysed by quantitative UPLC-MS utilizing a Waters Xevo TQ-XS (WBA0259) and an Acquity UPLC system from Waters consisting of Sample Manager (M16UFL953M), Acquity PDA (F17UPD457A), Column Oven (E17CMP703G) and Binary Solvent Manager (E17BUR621G). […] Chromatograms of the samples were treated similarly, and by linear regression (1/x) an in-cell concentration was established in the re-suspended cell lysate using the Waters MassLynx TargetLynx^TM product.

RKO cells [2] = test: Sub-cellular (cytoplasmic, nuclear) peptide concentration in RKO cells by UPLC-MS; conditions: for Sub-cellular drug content, Cytoplasm / Sub-cellular drug content, Cytoplasm, Measured concentration / Sub-cellular drug content, Nuclear / Sub-cellular drug content, Nuclear, Measured concentration: fractionation, n = 2; for pMol/mg: Nuclear
Experimental: as §1

[3] = 25 µM compound, 90 minutes, UPLC-MS
[4] = 25 µM compound, 24 hours, UPLC-MS

In the case of `CC(=O)NCC(=O)N[C@@H](CCCNC(=N)N)C(=O)N[C@@H](CCCCN)C(=O)N[C@@H](CCCCN)C(=O)N[C@@H](CCCNC(=N)N)C(=O)N[C@@H](CCCNC(=N)N)C(=O)N[C@@H](CCC(N)=O)C(=O)N[C@@H](CCCNC(=N)N)C(=O)N[C@@H](CCCNC(=N)N)C(=O)N[C@@H](CCCNC(=N)N)C(=O)N1CCC[C@H]1C(=O)N[C@@H](CCC(N)=O)C(N)=O` [Tat, reference compound], the “Total drug content, Measured Concentration” value (RKO cells [1]; 90 minutes, UPLC-MS, n = 2) is reported as 478.752 ± 163.021 nM, the “Total drug content, Measured Concentration” value (RKO cells [1]; 24 hours, UPLC-MS, n = 2) is reported as 1797.357 ± 596.21 nM and the “Total drug content” value (RKO cells [1]; 24 hours, total lysis, UPLC-MS, n = 2) is reported as 2.696 ± 0.8943 nmol. The “Measured Conc” value (RKO cells [1]; total drug content, 90 minutes, UPLC-MS, dilution factor 10, replicate 1) was 641.773 nM, the “Measured Conc” value (RKO cells [1]; total drug content, 90 minutes, UPLC-MS, dilution factor 10, replicate 2) was 315.731 nM and the “pMol/mg of protein, Mean” value (RKO cells [1]; total drug content, 90 minutes, mean of 2 replicates) was 882.5 pMol/mg of protein. For the same compound, the “Measured Conc” value (RKO cells [1]; total drug content, 24 hours, UPLC-MS, dilution factor 10, replicate 1) was 2393.57 nM, the “Measured Conc” value (RKO cells [1]; total drug content, 24 hours, UPLC-MS, dilution factor 10, replicate 2) was 1201.15 nM and the “pMol/mg, Mean” value (RKO cells [1]; total drug content, 24 hours, mean of 2 replicates) was 1647 pMol/mg. The “Sub-cellular drug content, Cytoplasm” value (RKO cells [2]; [3]) was 0.137 nmol, the “Sub-cellular drug content, Cytoplasm, Measured concentration” value (RKO cells [2]; [3]) was 91.363 ± 8.748 nM and the “Sub-cellular drug content, Nuclear” value (RKO cells [2]; [3]) was 0.6254 nmol. For the same compound, the “Sub-cellular drug content, Nuclear, Measured concentration” value (RKO cells [2]; [3]) was 416.901 ± 142.802 nM, the “Sub-cellular drug content, Cytoplasm” value (RKO cells [2]; [4]) was 0.1476 nmol and the “Sub-cellular drug content, Cytoplasm, Measured concentration” value (RKO cells [2]; [4]) was 98.42 ± 12.91 nM. For the same compound, the “Sub-cellular drug content, Nuclear” value (RKO cells [2]; [4]) was 0.9853 nmol, the “Sub-cellular drug content, Nuclear, Measured concentration” value (RKO cells [2]; [4]) was 656.841 ± 162.534 nM and the “pMol/mg, Mean” value (RKO cells [2]; Cytoplasm, 25 µM compound, 90 minutes (1.5 hrs), mean of 2 replicates) was 209 pMol/mg. The pMol/mg (RKO cells [2]; 25 µM compound, 90 minutes (1.5 hrs), replicate 1) was 2567 pMol/mg, the pMol/mg (RKO cells [2]; 25 µM compound, 90 minutes (1.5 hrs), replicate 2) was 4988 pMol/mg and the “Cytoplasmic concentration of peptide” value (RKO cells [2]; cytoplasmic fraction, UPLC-MS, mean of n = 2) was 231.15 pMols/mg of protein. For the same compound, the “Nuclear concentration of peptide” value (RKO cells [2]; nuclear fraction, UPLC-MS, mean of n = 2) was 3777.5 pMols/mg of protein.
